Test [1] has as its target T1, Human NE (hNE) (Homo sapiens, UniProt P08246).
T1 sequence (P08246 30-267): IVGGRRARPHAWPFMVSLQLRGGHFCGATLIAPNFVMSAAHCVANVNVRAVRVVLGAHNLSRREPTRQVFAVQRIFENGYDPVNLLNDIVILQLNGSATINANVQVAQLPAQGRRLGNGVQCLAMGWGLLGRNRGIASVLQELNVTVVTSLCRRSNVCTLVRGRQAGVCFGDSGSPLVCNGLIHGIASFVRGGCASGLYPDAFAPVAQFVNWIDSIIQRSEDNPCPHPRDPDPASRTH
Description: Human NE activity in vitro, cumulative elastase activity over time. Format: biochemical. As to conditions: hNE incubated with various concentration of inhibitor; FIGS. 1A-1C. As for the experimental part: In FIGS. 1A-1C Human NE (hNE) was incubated for the indicated amount of time (X-axis) either alone (Control, black line) or in the presence of various concentration of inhibitor, as indicated in each graph (colored lines). The cumulative elastase activity detected over time is plotted.
Several methods for measuring elastase enzymatic activity are known in the art. Merely by way of example, elastase activity can be determined by measuring the fluorescence emitted by a fluorigenic peptide such as MeOSuc-Ala-Ala-Pro-Val-AFC or Suc-Ala-Ala-Ala-AMC. Fluorescence may be measured, for example, using a plate reader. Other suitable assays for measuring elastase activity will be known to the skilled person. These may include measuring the product generated by incubation with a fluorescently labelled peptide such as 5-FAM-Arg-Glu-Ala-Val-Val-Tyr or 5-FAM-Ala-Ala-Ala-Phe-Tyr-Asp using an instrument that detects the size of the fluorescently labelled probe.

Test [2] relates to myoblasts isolated from a patient affected by Duchenne muscular dystrophy. Description: NE-induced myoblast death, DMD patient myoblasts treated with human NE. The format is cell-based. As to conditions: for rescue of NE-induced myoblast death (number of live cells as percentage of untreated Control): DMD patient myoblasts treated with human NE, FIG. 1D; for effectiveness against human NE compared with mouse NE: comparison of FIG. 1D (hNE) and FIG. 1E (mNE). The source says:
(§1) The number of live cells in each condition was counted and plotted as percentage of the number of live cells in the untreated (Control) condition.

In test [3] the test system is myoblasts from a mouse model of Duchenne muscular dystrophy (mdx4cv). As to the kind of experiment: NE-induced myoblast death, mdx4cv mouse myoblasts treated with mouse NE. Format: cell-based. As to conditions: FIG. 1E.
Source text: as §1

The test system of test [4] is dystrophin-deficient mice (mdx4cv strain). Description: 12-week oral treatment of mdx4cv mice, overall efficacy. Format: in vivo, mouse. As to conditions: elastase inhibitor orally, concomitantly with oral prednisolone. As for the experimental part: FIG. 1F is a graphical illustration of data gathered from in vivo testing efficacy of a placebo, as compared to the elastase inhibitor Alvelestat, alone at various administration concentrations, and in combination with the glucocorticoid prednisolone at various administration concentrations. In this, and the following figures, the abbreviation “Plcb” refers to administration of a placebo, the abbreviation “Pred” refers to administration of prednisolone at 1 mg/kg/day, the abbreviation “Alv10” refers to the administration of the elastase inhibitor alvelestat at 10 mg/kg/day, and the abbreviation “Alv25” refers to the administration of the elastase inhibitor alvelestat at 25 mg/kg/day.
The administration of the various compounds occurred over a 12-week period, in a controlled randomized, double blinded test using dystrophin-deficient mice (mdx4cv strain). In FIG. 1F, beginning during the tenth week of the test, the mice were exposed to an activity wheel, with the cumulative distance plotted on the y-axis and the number of days spent with the exercise wheel plotted on the x-axis.

For test [5] the test system is unchanged. As to the kind of experiment: Myofiber necrosis (mIgG uptake on immunostained cryosections). The format is in vivo, mouse. As to conditions: 12 weeks, FIG. 10. As for the experimental part: In FIG. 10, myofiber necrosis was measured by calculating the percentage of myofibers that uptake mouse immunoglobulins (mIgG) on immunostained cryosections. IgG are normally present only in the blood and the extracellular matrix within tissues, but are uptaken by necrotic cells that have permeable plasma membranes due to cell damage damage.

The test system is the same in test [6]. Description: Inflammation transcripts in muscle by RNA sequencing. The format is in vivo, mouse. As to conditions: elastase inhibitor alone, 12 weeks; FIGS. 11A, 11B. As for the experimental part:
In FIGS. 11A and 11B, mRNA was extracted from muscles of the mice, then transcripts were quantified using next generation sequencing. […] Mdx^4cv mice were treated for 12 weeks with either placebo (Plcb, gray boxes) or prednisolone (1 mg/Kg/day, cyan boxes) alone or in combination with the elastase inhibitor alvelestat (Alv) at two different doses (10 mg/Kg/day, pink boxes; 25 mg/Kg/day, purple boxes). Each box-and-whiskers graph represent the levels of a marker of the immune response detected by RNA sequencing (n=6 per treatment group, Y-axis scale on the left). The overlayed line graphs show the effect size of each treatment vs Plcb calculated and plotted as Cohen's d (Y-axis scale on the right). Significance of each treatment vs Plcb: ***=p<0.001, **=p<0.01, *=p<0.05.

Test [7] has the same test system. As to the kind of experiment: Muscle fibrosis, Sirius Red staining of gastrocnemius cryosections. Format: in vivo, mouse. As to conditions: 12 weeks, FIG. 13. As for the experimental part:
FIG. 13 illustrates fibrosis levels of the various cohorts, assessed on cryosections of gastrocnemius muscles from the mice, which were stained with Sirius Red to detect fibrillar collagen. Untreated dystrophic mice were euthanized at the age when treatments start (Pre-tr) and used as baseline for disease progression. Images were analyzed for their fluorescence intensity (Sirius red emits fluorescence in the yellow-red band of the light spectrum) as a measure of collagen abundance per unit area (e.g. per pixel), which was multiplied by the total Sirius red+ area as a proxy for 3D evaluation of fibrillar collagen content.

Test [8] has the same test system. Description: Serum muscle creatine kinase (mCK) activity. The format is in vivo, mouse. As to conditions: 12 weeks; FIG. 6. The source says:
FIG. 6 is a graphical illustration of muscle creatine kinase (mCK) activity for various cohorts of tested mice (including mice pre-treatment with any elastase inhibitor or glucocorticoid) at the conclusion of the 12 week administration period. FIG. 7 is a graphical illustration of MyoD protein levels for various cohorts of tested mice (including mice pre-treatment with any elastase inhibitor or glucocorticoid) at the conclusion of the 12 week administration period. FIG. 8 is a graphical illustration of liver pathology scores for various cohorts of tested mice (including mice pre-treatment, with any elastase inhibitor or glucocorticoid) at the conclusion of the 12 week administration period.

Test [9] shares this test system. As to the kind of experiment: Muscle mass: quadriceps wet weight and diaphragm cross-sectional area. Format: in vivo, mouse. As to conditions: 12 weeks; for prednisolone-induced loss of muscle mass / muscle atrophy: in combination with prednisolone, FIGS. 15, 16; for muscle mass (quadriceps wet weight): single agent, FIG. 15. The source says:
FIG. 15 illustrates the wet weight of quadriceps muscle groups dissected from dystrophic mice at treatment start (baseline, Pre-Tr) or after the 12 week administration period, at the time of euthanasia.

For test [10] the test system is unchanged. Description: Diaphragm strip tetanic force and residual force. The format is in vivo, mouse.

SMILES strings stand for the structures. Entries after “also recorded” stand apart in the source; their conditions may differ.

Turning to `Cc1c(-c2ccnn2C)cc(C(=O)NCc2ccc(S(C)(=O)=O)cn2)c(=O)n1-c1cccc(C(F)(F)F)c1` [Alvelestat], in test [1], the “inhibiting human NE activity in vitro” value is listed as “similarly potent”. Further, in test [2], the “rescue of NE-induced myoblast death (number of live cells as percentage of untreated Control)” value is reported as “similarly effective at rescuing NE-induced myoblast cell death; also recorded: similarly effective at blocking NE-induced myoblast death” and the “effectiveness against human NE compared with mouse NE” value is “most effective against human NE”. Also, in test [3], the “rescue of NE-induced myoblast death (number of live cells as percentage of untreated Control)” value is recorded as “similarly effective at blocking NE-induced myoblast death”. In addition, in [4], the prednisolone efficacy result is on record as “enhances prednisolone efficacy”. Also, in [5] (alvelestat alone, 10 and 25 mg/kg/day), the myofiber necrosis result was “decreases myofiber necrosis in a dose-dependent manner; also recorded: reduces necrosis”. In [5] (combined with prednisolone 1 mg/kg/day), the “myofiber necrosis / myofiber stability” value is recorded as “additive affect on myofiber stability”. In addition, the “inflammation (immune response transcripts)” value in [6] is “does not significantly affect inflammation”. Moreover, the muscle fibrosis result in test [7] (alone) is “decreases muscle fibrosis”. The prednisolone-induced fibrosis entry in [7] (in combination with prednisolone) is “prevents prednisolone-induced fibrosis”. Besides, in test [8], the “serum mCK levels (muscle damage)” value is listed as “lowers serum mCK levels”. In test [9], the “prednisolone-induced loss of muscle mass / muscle atrophy” value is given as “partly rescued the prednisolone-induced loss of muscle mass in a dose-dependent manner that appears inversely correlated” and the “muscle mass (quadriceps wet weight)” value is recorded as “increased it”. Moreover, the “prednisolone-induced loss of muscle mass / muscle atrophy” value in test [9] (listed as AZD9668) is recorded as “reduces prednisolone induced muscle atrophy”. In addition, the “diaphragm weakness (specific tetanic force, residual force)” value in [10] (alone and in combination with prednisolone, FIGS. 17-19) is given as “affects diaphragm weakness independent of muscle loss in a complex manner”.

For `CC(=O)C1=C(C)N(c2cccc(C(F)(F)F)c2)C(=O)N[C@@H]1c1ccc(C#N)nc1` [BAY-678], the “rescue of NE-induced myoblast death (number of live cells as percentage of untreated Control)” value in test [3] is reported as “similarly effective at blocking NE-induced myoblast death”.

On to `C[C@]12C=CC(=O)C=C1CC[C@@H]1[C@@H]2[C@@H](O)C[C@@]2(C)[C@H]1CC[C@]2(O)C(=O)CO` [prednisolone], for which the “muscle mass (quadriceps wet weight)” value in test [9] is given as “dramatically decreased muscle mass”. In [10] (diaphragm strips, 20 second tetanus, FIG. 19), the “residual force at 15 seconds after peak force (percentage of the peak force)” value was “decline in residual force, which is greater for prednisolone alone”.

Consider `COc1cc(C(C)C)c2c(c1)S(=O)(=O)N(COc1cc(=O)n3cccc(OCCN4CCCCC4)c3n1)C2=O` [SSR69071], for which, in test [1], the “inhibiting human NE activity in vitro” value is on record as “similarly potent”. In [2], the “rescue of NE-induced myoblast death (number of live cells as percentage of untreated Control)” value is “similarly effective at rescuing NE-induced myoblast cell death; also recorded: similarly effective at blocking NE-induced myoblast death” and the “effectiveness against human NE compared with mouse NE” value is recorded as “most effective against human NE”. Further, the “rescue of NE-induced myoblast death (number of live cells as percentage of untreated Control)” value in test [3] was “similarly effective at blocking NE-induced myoblast death”.

For the origin of these results see patent publication US11918570B2, “Method of treatment for prevention of glucocorticoid toxicity and/or enhancement of muscle regeneration via neutrophil elastase inhibition” (The Research Foundation for The State University of New York, priority 2020, dated 2024).
